Assay results from US10550388B2, “Targeting pleiotrophin signaling to limit high-grade glioma invasion” (The Board of Trustees of the Leland Stanford Junior …, priority 2017, dated 2020).
Entries after “also recorded” stand apart in the source; their conditions may differ.

How the values were obtained:
ROCK = assay: Rho-associated kinase (ROCK) activity assay in DIPG cells; format: cell-based, human; details: DIPG cells expressing the shRNA exposed to SVZ hNPC CM or the PTN complex; vs scrambled shRNA
Description: (§1) SU-DIPG-XIII frontal lobe cells were starved in TSM base (without B27 (−A) supplement, heparin, or growth factors) for 48 hours prior to treatment. After treatment, cells were lysed in the RhoA activation assay kit cell lysis buffer (Cytoskeleton, Denver, Colo.). Lysates were incubated on ice for 1 minute, clarified by centrifugation at 10,000×g, 4° C. for 1 minute, and the supernatants were snap-frozen and stored immediately at −80° C. Protein concentrations were measured by the BCA protein assay (Thermo Scientific, Waltham, Mass.), and samples were diluted to 0.5 mg/mL by the addition of cell lysis buffer.
ROCK activation assays were performed using the Rho-associated kinase (ROCK) activity assay (Millipore, Bedford, Mass.). Cell lysates were incubated in wells of a myosin phosphatase target subunit 1 (MYPT1) pre-coated 96-well plate, for 30 minutes at 30° C. with moderate shaking. Wells were incubated in anti-phospho-MYPT1(Thr696) primary antibody (1:1000) for 1 hour with moderate shaking. Goat anti-rabbit IgG HRP secondary antibody (1:2000) was added for 1 hour with moderate shaking. Results were visualized with TMB/E substrate, incubating in the dark for 10 minutes, and absorbance was read at 450 nm. All assays were performed in triplicate.

SU-DIPG-XIII FL cells [1] = assay: Matrigel invasion assay (Boyden chamber) of DIPG cells; format: cell-based, human; details: DIPG cells expressing the shRNA; for DIPG invasion toward SVZ hNPC CM or the PTN complex: vs scrambled control; for baseline DIPG invasion toward unconditioned hNPC media: vs scrambled shRNA
Description: To test for chemoattraction and invasion toward neural precursor cell conditioned media or another candidate chemoattractant, a single-cell suspension of 100,000 DIPG cells in Tumor Stem Media (TSM) base (with B27 (−A) and heparin, without growth factors) was seeded in the top inserts of BioCoat growth factor reduced Matrigel invasion chambers (Corning, Bedford, Mass.), after rehydration of the inserts. Chemoattractant media was added to the bottom of the chamber. All conditions were plated in triplicate. After 72 hours, media was aspirated, and the non-invading cells on top of the layer of Matrigel were scrubbed off. The invading cells were fixed in 4% paraformaldehyde and then stained with 0.1% crystal violet in 10% methanol in distilled water. The number of invading cells was quantified by the intensity of the crystal violet dye on the invading side of the Matrigel. The dye was collected in 10% acetic acid, and absorbance was measured at 595 nm.
To test the ROCK or HSP90 inhibitors in the Matrigel invasion assay, the inhibitors were added to the suspension of glioma cells in TSM base (with B27 (−A) and heparin) seeded in the top inserts at the appropriate concentrations, and neural precursor cell conditioned media was plated in the bottom chambers. The rest of the procedure was performed as described above.

PTPRZ1 = assay: Knockdown of PTPRZ1 in DIPG cells (qPCR, Western blot); format: cell-based, human; details: vs scrambled shRNA control or no shRNA; for PTPRZ1 gene expression: qPCR
Description: Samples were run on Bio-Rad Mini-Protean TGX precast gels (Bio-Rad, Hercules, Calif.), and the protein was transferred onto polyvinylidene fluoride (PVDF) membranes. Membranes were blocked with 5% bovine serum albumin (BSA) in TBST for 1 hour, and incubated in primary antibodies diluted in 1% BSA/TBST overnight at 4° C. Primary antibodies used were: mouse anti-pleiotrophin (1:100; Santa Cruz Biotechnology, Santa Cruz, Calif.), goat anti-SPARC (1:100; R&D Systems, Minneapolis, Minn.), goat anti-SPARCL1 ([…]; R&D Systems, Minneapolis, Minn.), rabbit anti-HSP90B (GeneTex, Irvine, Calif.), rabbit anti-GRP78 (1:500, Abcam, Cambridge, Mass.), rabbit anti-PTPRZ (Thermo Fisher, Waltham, Mass.), and rabbit beta-actin (1:2000; Cell Signaling, Danvers, Mass.). Secondary antibodies conjugated to horseradish peroxidase (HRP) were added for 1 hour at room temperature. Secondary antibodies used were: goat anti-rabbit IgG-HRP (Cell Signaling, Danvers, Mass.), horse anti-mouse IgG-HRP (Cell Signaling, Danvers, Mass.), and donkey anti-goat IgG-HRP (Santa Cruz Biotechnology, Santa Cruz, Calif.). Proteins were visualized using Clarity Western ECL Substrate (Bio-Rad, Hercules, Calif.).
Cells or tissue were lysed and homogenized in TRIzol Reagent (Life Technologies, Carlsbad, Calif.) and RNA was extracted according to reagent protocol. RNA was treated with dsDNase, and cDNA was synthesized using Thermo Scientific Maxima First Strand cDNA Synthesis Kit for RT-qPCR with dsDNase (Thermo Fisher Scientific K1671). RT-PCR was performed on Eppendorf Mastercycler Realplex2 using Universal SYBR Green Supermix (BioRad, Hercules, Calif.). Differential expression was determined using the deltaCt method. Primers used were as follows: […]
For lentiviral infection, DIPG cells or neural precursor cells were exposed to shRNA-expressing lentivirus for 16 hours. Puromycin was added 48 hours after infection to select for virally infected cells. After removal of puromycin, shRNA-treated neural precursor cells were grown for 7 days (with addition of media on day 3-4) for generation of conditioned media. […]

RhoA = assay: G-LISA RhoA activation assay in DIPG cells; format: cell-based, human; details: DIPG cells expressing the shRNA exposed to SVZ hNPC CM or the PTN complex; vs scrambled shRNA
Description: as §1
RhoA activation assays were performed using the G-LISA RhoA absorbance-based activation assay (Cytoskeleton, Denver, Colo.). Lysate samples were incubated in a 96-well plate with pre-linked Rho GTP-binding protein for 30 minutes at 4° C. shaking at 400 rpm. Wells were incubated in anti-RhoA primary antibody (1:250) at room temperature for 45 minutes shaking at 400 rpm. Secondary HRP-labeled antibody (1:62.5) was added at room temperature for 45 minutes shaking at 400 rpm. Results were visualized by addition of HRP detection reagents for 12 minutes at 37° C., and the absorbance was read at 490 nm. All assays were performed in triplicate.

SU-DIPG-XIII FL cells [2] = assay: CellTiter-Glo cell viability assay; format: cell-based, human; details: base media without growth factors, vs scrambled control or no shRNA
Description: To assess cell viability, 5,000 DIPG cells per well were seeded in base media or full growth media in a 96-well plate. Inhibitors were added at the appropriate concentrations. After 72 hours, CellTiter-Glo reagent 2.0 was added at a 1:1 ratio, and cells were lysed. Luminescence was measured after stabilization of signal for 10 minutes at room temperature.

SU-DIPG-XIII FL cells [3] = assay: Orthotopic xenograft of PTPRZ1 knockdown DIPG cells; format: in vivo, NSG mice; details: knockdown cells xenografted to the pons, vs scrambled shRNA control cells; for DIPG cells invading the SVZ: 8 weeks following xenograft
Description: (§2) NSG mice at age P34-36 were orthotopically xenografted with SU-DIPG-XIII frontal lobe CMV-GFP-luciferase cells, in a similar procedure to as previously described (Grasso et al., supra; Venkatesh et al. (2015) Cell 161, 803-816). Briefly, a single-cell suspension of SU-DIPG-XIII frontal lobe CMV-GFP-luciferase cells at passage 16-19 was prepared in sterile HBSS immediately before beginning the xenograft procedure. 600,000 cells in 3 μL were stereotactically injected into the pons of the left hemisphere of NSG mice, through a 31-gauge burr hole. Stereotactic coordinates used were: 1 mm lateral to midline, 0.8 mm posterior to lambda suture, and 5 mm deep. Cells were injected at a rate of 0.4 μL/min using a digital pump and a 31-gauge Hamilton syringe. After infusion of cells, the syringe needle was kept in place for 2 minutes, and then withdrawn manually at a rate of 0.875 mm/min to minimize the backflow of cells.
(§3) Mice were imaged using an IVIS Spectrum to ensure tumor engraftment and monitor tumor size. Mice were anesthetized under 1% isoflurane, intraperitoneally injected with luciferin (15 mg/kg), and imaged for bioluminescence every minute until the peak total flux was reached.
For lentiviral infection, DIPG cells or neural precursor cells were exposed to shRNA-expressing lentivirus for 16 hours. Puromycin was added 48 hours after infection to select for virally infected cells. After removal of puromycin, shRNA-treated neural precursor cells were grown for 7 days (with addition of media on day 3-4) for generation of conditioned media. After removal of puromycin, shRNA-treated DIPG cells were grown for at least one passage before experimental use.

HSP90B = assay: Knockdown of HSP90B expression in the mouse SVZ; format: in vivo; details: lentivirus injected into the SVZ; vs scrambled shRNA control
Description: (§4) Mice used for shRNA lentivirus studies received shRNA-expressing lentivirus in the SVZ at P27-29 and DIPG cells in the left pons at P34-36. For lentiviral injections, 2 μL of shRNA-expressing lentivirus were stereotactically injected into the SVZ. Stereotactic coordinates used were: 1.3 mm lateral to midline, 0.1 mm posterior to bregma suture, and 2 mm deep. Virus was injected and the needle was withdrawn according to the same procedure as described above.
Mice were intraperitoneally injected with Avertin (tribromoethanol) for anesthesia, and then transcardially perfused with 20 mL of ice-cold PBS. Brains were dissected out and fixed in 4% paraformaldehyde in PBS overnight at 4° C., and were then transferred to 30% sucrose in PBS for cryoprotection. Brains were embedded in Tissue-Tek O.C.T. (Sakura, Torrance, Calif.). Brains from mice older than P10 were sliced into 40 μm coronal or sagittal sections using a sliding microtome (Microm HM450; Thermo Scientific, Waltham, Mass.). Brains from mice age P0 to P10 were sliced into 25 μm coronal sections using a cryostat (Leica Biosystems CM3050 S; 1058 Wetzlar, Germany). For immunohistochemistry, a 1 in 6 series of 25 μm or 40 μm sections was incubated in blocking solution (3% normal donkey serum, 0.3% Triton X-100 in TBS) at room temperature for 1 hour. […]

SU-DIPG-XIII FL cells [4] = assay: shRNA-expressing lentivirus injected into the SVZ of orthotopically xenografted mice; format: in vivo, NSG mice; details: vs scrambled shRNA control; for DIPG cells invading the SVZ: 16 weeks following pontine xenograft
Description: as §2, §4, §3
For quantification of DIPG invasion of the SVZ after knock down of targets in the SVZ, 5 NSG mice per group were injected with shRNA-expressing lentivirus in bilateral SVZs and orthotopically xenografted with SU-DIPG-XIII FL in the left pons. Mice were perfused for analysis 16 weeks after xenograft. A 1:6 series of coronal slices from each mouse brain was immunostained and imaged, and the number of GFP^+ HNA^+ glioma cells within 200 μm of the lateral ventricles in all slices containing lateral ventricles was manually counted.
For quantification of neural stem/precursor cells in the SVZ after knock down of PTN in the SVZ, a 1:6 series of coronal slices from each mouse was immunostained and imaged, and the number of Sox2^+ neural stem/precursor cells in a 20×Z-stack was manually counted. The density of Sox2^+ cells was calculated as cells/mm^3.

[5] = listed as shRNA lentivirus targeting PTPRZ1
[6] = listed as shRNA-expressing lentivirus targeting the HSP90B1 gene

Substance	ROCK activation (ROCK)	DIPG invasion toward SVZ hNPC CM or the PTN complex (SU-DIPG-XIII FL cells [1])	DIPG invasion toward SVZ hNPC CM or the PTN complex (SU-DIPG-XIII FL cells [1]; [5])	baseline DIPG invasion toward unconditioned hNPC media (SU-DIPG-XIII FL cells [1])	baseline DIPG invasion toward unconditioned hNPC media (SU-DIPG-XIII FL cells [1]; [5])	PTPRZ protein levels (PTPRZ1; Western blot)	PTPRZ1 gene expression (PTPRZ1)	PTPRZ1 gene expression (PTPRZ1; [5])	RhoA activation (RhoA)	cell viability of DIPG cells expressing the shRNA (SU-DIPG-XIII FL cells [2])	cell viability of DIPG cells expressing the shRNA (SU-DIPG-XIII FL cells [2]; [5])	DIPG cells invading the SVZ (SU-DIPG-XIII FL cells [3])	DIPG cells invading the SVZ (SU-DIPG-XIII FL cells [3]; [5])	decrease of total tumor size (engraftment), bioluminescent signal on initial IVIS imaging (SU-DIPG-XIII FL cells [3]) [fold]	tumor growth over time (SU-DIPG-XIII FL cells [3])	HSP90B expression in the SVZ (HSP90B)	DIPG cells invading the SVZ (SU-DIPG-XIII FL cells [4])	DIPG cells invading the SVZ (SU-DIPG-XIII FL cells [4]; [6])	tumor engraftment (bioluminescent flux) (SU-DIPG-XIII FL cells [4]; listed as shRNA lentivirus targeting HSP90B1)	tumor engraftment (bioluminescent flux) (SU-DIPG-XIII FL cells [4]; [6])
PTPRZ1 shRNA: lentivirus-expressed shRNA against human PTPRZ1, Sigma TRCN0000356374, SEQ ID NO: 13 (CCGGATACCTAAGTCTTCGTTAATACTCGAGTATTAACGAAGACTTAGGTATTTTTTG)	abrogation of RhoA and ROCK activation; also recorded: decreased activation of RhoA and ROCK	partial abrogation of invasion	partially abrogates DIPG invasion	substantially decreases baseline invasion	decrease in baseline DIPG invasion	effective knock down	Robust shRNA-mediated knockdown of PTPRZ1 expression	effective knock down of PTPRZ1 gene expression	abrogation of RhoA and ROCK activation; also recorded: decreased activation of RhoA and ROCK	mildly decreases cell viability	mild decrease in cell viability	significantly fewer cells expressing PTPRZ1 shRNA reached the SVZ	fewer DIPG cells with knockdown of PTPRZ1 invaded the SVZ	10	rate of growth was similar	–	–	–	–	–
sh-HSP90B1: lentivirus-expressed shRNA against mouse HSP90B1, Sigma TRCN0000071925, SEQ ID NO: 12 (CCGGGCTATTCAGTTGGATGGGTTACTCGAGTAACCCATCCAACTGAATAGCTTTTTG)	–	–	–	–	–	–	–	–	–	–	–	–	–	–	–	low HSP90B expression after knockdown	fewer orthotopically xenografted GFP^+ HNA^+ SU-DIPG-XIII FL cells invaded the SVZ	fewer DIPG cells invading the SVZ	equivalent	no effect on initial tumor engraftment
